Columns and labels:
Assay in all cases: relative viability (nuclei count vs DMSO), 5 days (fraction); higher = more cells survive
[1] = compound: CC1=CC(=CC=C1)NC2=NC(=CS2)C3=CC=NC=C3 + N=C(N)NC(=N)NCCc1ccccc1 [Phenformin] (partner 250 µM)
In short: (§1)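 The day after seeding in 1536-well plates, lung cancer cell lines were treated by pin tool with a single drug, or with a fixed anchor-drug dose together with five library-drug doses (not always all listed) in √10 steps. After 5 days, a combined fix-and-stain solution (final 0.05% Triton X-100, 1% formaldehyde, 1 ug/ml Hoechst) was added. Nuclei counted on 4× images gave relative viability as treated counts over vehicle counts, reported as the median of duplicate plates.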

Masitinib + Linsitinib = compound: Cc1ccc(NC(=O)c2ccc(CN3CCN(C)CC3)cc2)cc1Nc1nc(-c2cccnc2)cs1 [Masitinib] + C[C@]1(O)C[C@@H](c2nc(-c3ccc4ccc(-c5ccccc5)nc4c3)c3c(N)nccn32)C1 [Linsitinib] (partner 1 µM)
In short: as §1

[2] = compound: CC1=CC(=CC=C1)NC2=NC(=CS2)C3=CC=NC=C3 + Nc1ncn([C@H]2C[C@H](O)[C@@H](CO)O2)c(=O)n1 [Decitabine] (partner 2 µM)
In short: as §1

[3] = compound: CC1=CC(=CC=C1)NC2=NC(=CS2)C3=CC=NC=C3 + CCNC(=O)c1noc(-c2cc(C(C)C)c(O)cc2O)c1-c1ccc(CN2CCOCC2)cc1 [Luminespib] (partner 0.01 µM)
In short: as §1

| Cell Line | relative viability ([1]; first compound 0.08 µM) | relative viability ([1]; first compound 0.253 µM) | relative viability ([1]; first compound 0.8 µM) | relative viability ([1]; first compound 2.53 µM) | relative viability ([1]; first compound 8 µM) | relative viability (Masitinib + Linsitinib; first compound 0.01 µM) | relative viability (Masitinib + Linsitinib; first compound 0.03162 µM) | relative viability (Masitinib + Linsitinib; first compound 0.1 µM) | relative viability (Masitinib + Linsitinib; first compound 0.3162 µM) | relative viability (Masitinib + Linsitinib; first compound 1 µM) | relative viability ([2]; first compound 0.08 µM) | relative viability ([2]; first compound 0.253 µM) | relative viability ([2]; first compound 0.8 µM) | relative viability ([2]; first compound 2.53 µM) | relative viability ([2]; first compound 8 µM) | relative viability ([3]; first compound 0.08 µM) | relative viability ([3]; first compound 0.253 µM) | relative viability ([3]; first compound 0.8 µM) | relative viability ([3]; first compound 2.53 µM) | relative viability ([3]; first compound 8 µM) |
| --- | --- | --- | --- | --- | --- | --- | --- | --- | --- | --- | --- | --- | --- | --- | --- | --- | --- | --- | --- | --- |
| NCI-H1437 | 0.253 | 0.25 | 0.309 | 0.253 | 0.246 | 1.1 | 0.991 | 0.986 | 1.04 | 1.07 | 0.593 | 0.521 | 0.742 | 0.384 | 0.48 | 1.18 | 1.17 | 1.1 | 1.13 | 0.98 |
| H3255 | 0.372 | 0.374 | 0.365 | 0.4 | 0.414 | 0.679 | 0.844 | 0.837 | 0.977 | 0.936 | 0.576 | 0.506 | 0.581 | 0.601 | 0.553 | 0.902 | 0.681 | 0.905 | 0.702 | 0.826 |
| NCI-H2009 | 0.449 | 0.482 | 0.46 | 0.51 | 0.347 | 1.2 | 1.22 | 1.24 | 1.23 | 1.17 | 0.342 | 0.425 | 0.385 | 0.411 | 0.376 | 1.01 | 0.953 | 0.905 | 0.988 | 1.05 |
| NCI-H1755 | 0.505 | 0.524 | 0.566 | 0.598 | 0.546 |  | 0.976 | 1 | 1.02 | 0.955 | 0.654 | 0.702 | 0.701 | 0.617 | 0.604 | 0.519 | 0.46 | 0.428 | 0.37 | 0.486 |
| HOP-62 | 0.683 | 0.609 | 0.804 | 0.722 | 0.65 | 0.916 | 0.978 | 0.973 | 0.917 | 0.833 | 0.219 | 0.218 | 0.261 | 0.244 | 0.247 | 0.952 | 0.8 | 0.867 | 0.914 | 0.879 |
| LOU-NH91 | 0.468 | 0.364 | 0.63 | 0.591 | 0.744 | 0.909 | 0.893 | 0.972 | 0.928 | 0.911 | 0.744 | 0.797 | 0.728 | 0.825 | 0.78 | 0.319 | 0.351 | 0.33 | 0.297 | 0.314 |
| NCI-H23 | 0.787 | 0.711 | 0.717 | 0.82 | 0.779 | 0.656 | 0.58 | 0.613 | 0.525 | 0.493 | 0.327 | 0.274 | 0.32 | 0.299 | 0.32 | 0.208 | 0.184 | 0.208 | 0.221 | 0.22 |
| PC-3 [JPC-3] | 0.426 | 0.451 | 0.461 | 0.486 | 0.498 | 0.969 | 1 | 0.951 | 0.961 | 0.964 | 0.783 |  | 0.865 | 0.72 | 0.756 | 0.715 | 0.723 | 0.532 | 0.633 | 0.629 |
| NCI-H520 | 0.514 | 0.538 | 0.651 | 0.308 | 0.559 | 1.12 |  | 1.15 | 0.97 | 0.915 | 0.55 | 0.468 | 0.541 | 0.586 | 0.61 | 0.223 | 0.201 | 0.252 | 0.206 | 0.241 |
| NCI-H1666 | 0.526 | 0.489 | 0.547 | 0.513 | 0.451 | 0.806 | 0.774 | 0.846 | 0.781 | 0.718 | 0.682 | 0.691 | 0.67 | 0.472 | 0.636 | 0.976 | 0.958 | 0.773 | 0.81 | 0.679 |
| NCI-H1792 | 0.207 | 0.36 | 0.373 | 0.309 | 0.252 | 0.504 | 0.224 | 0.533 | 0.454 | 0.529 | 0.479 | 0.384 | 0.481 | 0.548 | 0.449 | 0.305 | 0.407 | 0.375 | 0.326 | 0.351 |
| NCI-H727 |  | 0.376 | 0.586 | 0.477 | 0.4 | 0.228 | 0.268 | 0.297 | 0.281 | 0.196 | 0.88 |  | 0.864 |  | 0.836 |  | 0.373 | 0.378 | 0.374 | 0.402 |
| HARA | 0.338 | 0.476 | 0.413 | 0.427 | 0.347 | 0.894 | 1.02 | 1.08 | 0.917 | 1.06 | 0.508 | 0.438 | 0.539 | 0.48 | 0.664 | 0.494 | 0.872 | 0.496 | 0.684 | 0.359 |
| NCI-H647 | 0.413 | 0.489 | 0.5 | 0.534 | 0.515 | 1.03 | 1.19 | 1.03 | 0.849 | 1.26 | 0.3 | 0.437 | 0.443 | 0.365 | 0.436 | 0.114 | 0.162 | 0.177 | 0.313 | 0.338 |
| NCI-H2347 | 0.387 | 0.381 |  | 0.397 | 0.419 | 0.758 | 0.911 | 0.867 | 0.948 | 1.09 | 0.622 | 0.596 | 0.53 | 0.602 | 0.591 | 0.409 | 0.248 |  | 0.555 | 0.232 |
| LCLC-97TM1 | 0.424 | 0.414 | 0.456 | 0.456 | 0.483 | 0.157 | 0.151 | 0.197 | 0.144 | 0.181 | 0.204 | 0.204 | 0.233 | 0.254 | 0.245 | 0.689 | 0.794 | 0.839 | 0.816 | 0.825 |
| EPLC-272H | 0.275 | 0.224 | 0.332 | 0.307 | 0.294 | 1.08 | 1.26 | 1.19 | 1.18 | 1.01 | 0.339 | 0.37 | 0.348 |  | 0.352 | 0.194 | 0.359 | 0.218 | 0.245 | 0.389 |
| NCI-H1975 | 0.359 | 0.362 | 0.383 | 0.326 | 0.296 | 0.995 | 0.92 | 1.03 | 0.832 | 0.908 | 0.326 | 0.336 | 0.381 | 0.356 | 0.245 | 0.252 | 0.17 | 0.201 | 0.249 | 0.184 |
| NCI-H3122 | 0.359 | 0.348 | 0.364 | 0.373 | 0.343 | 1.01 | 1.01 | 1.06 | 0.828 | 1.1 | 0.366 | 0.443 | 0.449 | 0.467 | 0.522 | 0.125 | 0.0766 | 0.101 | 0.0836 | 0.105 |
| NCI-H441 | 0.8 | 0.782 | 0.892 | 0.823 | 0.78 | 0.563 | 0.532 | 0.501 | 0.534 | 0.497 | 0.266 | 0.263 | 0.302 | 0.226 | 0.243 | 0.411 | 0.328 | 0.411 | 0.391 | 0.384 |
| NCI-H358 | 0.371 | 0.35 | 0.353 | 0.402 | 0.387 | 0.86 | 0.877 | 0.715 | 0.809 | 0.623 | 0.233 | 0.22 | 0.208 | 0.249 | 0.225 | 0.286 | 0.605 | 0.305 | 0.436 | 0.231 |
| NCI-H1395 | 0.402 | 0.422 | 0.46 | 0.367 | 0.407 | 1.05 | 1.09 | 1.09 | 0.959 | 1.02 | 0.666 |  | 0.685 | 0.677 | 0.761 | 0.597 | 0.72 | 0.688 | 0.643 | 0.524 |
| SK-MES-1 | 0.626 | 0.565 | 0.592 | 0.656 | 0.547 | 1.11 | 1.18 | 1.16 | 1.03 | 0.987 | 0.37 | 0.361 | 0.367 | 0.373 | 0.378 | 0.614 | 0.515 | 0.556 | 0.749 | 0.508 |
| PC-14 | 0.47 | 0.457 | 0.601 | 0.521 | 0.502 | 0.918 | 0.904 | 1 | 0.976 | 0.999 | 0.174 | 0.186 | 0.187 | 0.177 | 0.217 | 0.143 | 0.183 | 0.171 | 0.123 | 0.138 |

Reference: the supplement of paper PMC10307832
